# What was measured:
# LOX IMVI = test: Cytotoxicity against human LOX IMVI cells assessed as cell viability at 10 uM incubated for 48 hrs by sulforhodamine B assay relative to control; assay type: functional; details: read-out: Activity
# SK-MEL-2 = test: Cytotoxicity against human SK-MEL-2 cells assessed as cell viability at 10 uM incubated for 48 hrs by sulforhodamine B assay relative to control; assay type: functional; details: read-out: Activity
# UACC-257 = test: Cytotoxicity against human UACC-257 cells assessed as cell viability at 10 uM incubated for 48 hrs by sulforhodamine B assay relative to control; assay type: functional; details: read-out: Activity
# A-375 = test: Cytotoxicity against human A-375 cells assessed as reduction in cell viability by MTT assay; assay type: functional, cell-based
# SK-OV-3 = test: Cytotoxicity against human SK-OV-3 cells assessed as cell viability at 10 uM incubated for 48 hrs by sulforhodamine B assay relative to control; assay type: functional; details: read-out: Activity
# T47D = test: Cytotoxicity against human T47D cells assessed as cell viability at 10 uM incubated for 48 hrs by sulforhodamine B assay relative to control; assay type: functional; details: read-out: Activity
# SF-295 = test: Cytotoxicity against human SF-295 cells assessed as cell viability at 10 uM incubated for 48 hrs by sulforhodamine B assay relative to control; assay type: functional; details: read-out: Activity
# SK-MEL-5 = test: Cytotoxicity against human SK-MEL-5 cells assessed as cell viability at 10 uM incubated for 48 hrs by sulforhodamine B assay relative to control; assay type: functional; details: read-out: Activity
# HCT-29 = test: Cytotoxicity against human […] cells assessed as cell viability at 10 uM incubated for 48 hrs by sulforhodamine B assay relative to control; assay type: functional; details: read-out: Activity
# SK-MEL-28 = test: Cytotoxicity against human SK-MEL-28 cells assessed as reduction in cell viability by MTT assay; assay type: functional, cell-based
# L132 = test: Cytotoxicity against human L132 cells assessed as reduction in cell viability by MTT assay; assay type: cell-based
# [1] = target: RAF proto-oncogene serine/threonine-protein kinase (Homo sapiens, UniProt P04049); test: Inhibition of human CRAF using MEK1 as substrate by [gamma-33P]-ATP assay
# HCC 2998 = test: Cytotoxicity against human HCC 2998 cells assessed as cell viability at 10 uM incubated for 48 hrs by sulforhodamine B assay relative to control; assay type: functional; details: read-out: Activity
# UO-31 = test: Cytotoxicity against human UO-31 cells assessed as cell viability at 10 uM incubated for 48 hrs by sulforhodamine B assay relative to control; assay type: functional; details: read-out: Activity
# MCF7 = test: Cytotoxicity against human MCF7 cells assessed as cell viability at 10 uM incubated for 48 hrs by sulforhodamine B assay relative to control; assay type: functional; details: read-out: Activity
# Malme-3M = test: Cytotoxicity against human Malme-3M cells assessed as cell viability at 10 uM incubated for 48 hrs by sulforhodamine B assay relative to control; assay type: functional; details: read-out: Activity
# SF-539 = test: Cytotoxicity against human SF-539 cells assessed as cell viability at 10 uM incubated for 48 hrs by sulforhodamine B assay relative to control; assay type: functional; details: read-out: Activity
# NCI-H322M = test: Cytotoxicity against human NCI-H322M cells assessed as cell viability at 10 uM incubated for 48 hrs by sulforhodamine B assay relative to control; assay type: functional; details: read-out: Activity
# [2] = target: Serine/threonine-protein kinase B-raf (Homo sapiens, UniProt P15056, V600E); test: Inhibition of human BRAF V600E mutant using MEK1 as substrate by […] assay
# CAKI-1 = test: Cytotoxicity against human CAKI-1 cells assessed as cell viability at 10 uM incubated for 48 hrs by sulforhodamine B assay relative to control; assay type: functional; details: read-out: Activity
# HCT-15 = test: Cytotoxicity against human HCT-15 cells assessed as cell viability at 10 uM incubated for 48 hrs by sulforhodamine B assay relative to control; assay type: functional; details: read-out: Activity
# [3] = target: Serine/threonine-protein kinase B-raf (Homo sapiens, UniProt P15056); test: Inhibition of human BRAF using MEK1 as substrate by […] assay
# HCT-116 = test: Cytotoxicity against human HCT-116 cells assessed as cell viability at 10 uM incubated for 48 hrs by sulforhodamine B assay relative to control; assay type: functional; details: read-out: Activity
# RXF 393 = test: Cytotoxicity against human RXF 393 cells assessed as cell viability at 10 uM incubated for 48 hrs by sulforhodamine B assay relative to control; assay type: functional; details: read-out: Activity
# Serine/threonine-protein kinase B-raf (Homo sapiens, UniProt P15056), sequence (P15056 whole entry): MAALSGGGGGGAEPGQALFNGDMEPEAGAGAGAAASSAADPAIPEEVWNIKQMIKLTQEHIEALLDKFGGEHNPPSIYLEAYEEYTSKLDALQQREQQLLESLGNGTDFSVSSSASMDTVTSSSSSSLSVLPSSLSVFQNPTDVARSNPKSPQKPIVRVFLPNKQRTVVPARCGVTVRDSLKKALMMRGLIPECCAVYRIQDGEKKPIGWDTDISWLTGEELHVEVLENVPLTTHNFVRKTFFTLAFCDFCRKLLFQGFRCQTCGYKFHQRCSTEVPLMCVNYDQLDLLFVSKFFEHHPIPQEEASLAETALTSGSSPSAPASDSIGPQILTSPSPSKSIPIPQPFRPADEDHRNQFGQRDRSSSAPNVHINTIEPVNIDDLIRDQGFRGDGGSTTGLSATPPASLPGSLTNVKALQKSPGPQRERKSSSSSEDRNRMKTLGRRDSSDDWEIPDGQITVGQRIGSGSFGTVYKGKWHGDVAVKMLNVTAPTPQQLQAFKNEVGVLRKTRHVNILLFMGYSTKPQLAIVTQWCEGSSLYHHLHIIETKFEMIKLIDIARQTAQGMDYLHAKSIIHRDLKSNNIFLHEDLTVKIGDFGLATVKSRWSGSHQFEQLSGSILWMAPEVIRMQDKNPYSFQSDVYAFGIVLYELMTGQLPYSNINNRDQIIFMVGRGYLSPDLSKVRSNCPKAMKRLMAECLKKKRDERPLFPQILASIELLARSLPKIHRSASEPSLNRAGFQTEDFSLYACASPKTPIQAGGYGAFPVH
# Serine/threonine-protein kinase B-raf (Homo sapiens, UniProt P15056, V600E), sequence (P15056 2-766 V600E limits assumed): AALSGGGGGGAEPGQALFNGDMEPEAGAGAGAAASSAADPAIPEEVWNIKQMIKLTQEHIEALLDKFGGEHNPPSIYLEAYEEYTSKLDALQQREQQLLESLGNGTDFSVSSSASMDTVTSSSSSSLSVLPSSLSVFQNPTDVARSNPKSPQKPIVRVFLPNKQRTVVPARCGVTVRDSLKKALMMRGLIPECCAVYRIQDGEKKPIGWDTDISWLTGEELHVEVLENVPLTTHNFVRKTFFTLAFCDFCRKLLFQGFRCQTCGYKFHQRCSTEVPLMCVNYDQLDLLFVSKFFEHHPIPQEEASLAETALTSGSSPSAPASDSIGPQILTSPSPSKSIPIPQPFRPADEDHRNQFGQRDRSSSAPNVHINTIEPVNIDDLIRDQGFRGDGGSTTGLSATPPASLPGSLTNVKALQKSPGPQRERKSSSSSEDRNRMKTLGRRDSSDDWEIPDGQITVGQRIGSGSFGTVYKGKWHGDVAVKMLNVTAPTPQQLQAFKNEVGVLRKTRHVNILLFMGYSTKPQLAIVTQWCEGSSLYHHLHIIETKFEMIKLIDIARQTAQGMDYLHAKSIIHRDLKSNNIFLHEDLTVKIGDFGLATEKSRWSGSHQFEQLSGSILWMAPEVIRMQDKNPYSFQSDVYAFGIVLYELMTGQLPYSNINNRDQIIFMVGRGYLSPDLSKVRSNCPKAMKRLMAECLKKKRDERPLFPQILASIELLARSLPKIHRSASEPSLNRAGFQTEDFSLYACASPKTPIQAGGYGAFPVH
# RAF proto-oncogene serine/threonine-protein kinase, sequence (P04049 whole entry): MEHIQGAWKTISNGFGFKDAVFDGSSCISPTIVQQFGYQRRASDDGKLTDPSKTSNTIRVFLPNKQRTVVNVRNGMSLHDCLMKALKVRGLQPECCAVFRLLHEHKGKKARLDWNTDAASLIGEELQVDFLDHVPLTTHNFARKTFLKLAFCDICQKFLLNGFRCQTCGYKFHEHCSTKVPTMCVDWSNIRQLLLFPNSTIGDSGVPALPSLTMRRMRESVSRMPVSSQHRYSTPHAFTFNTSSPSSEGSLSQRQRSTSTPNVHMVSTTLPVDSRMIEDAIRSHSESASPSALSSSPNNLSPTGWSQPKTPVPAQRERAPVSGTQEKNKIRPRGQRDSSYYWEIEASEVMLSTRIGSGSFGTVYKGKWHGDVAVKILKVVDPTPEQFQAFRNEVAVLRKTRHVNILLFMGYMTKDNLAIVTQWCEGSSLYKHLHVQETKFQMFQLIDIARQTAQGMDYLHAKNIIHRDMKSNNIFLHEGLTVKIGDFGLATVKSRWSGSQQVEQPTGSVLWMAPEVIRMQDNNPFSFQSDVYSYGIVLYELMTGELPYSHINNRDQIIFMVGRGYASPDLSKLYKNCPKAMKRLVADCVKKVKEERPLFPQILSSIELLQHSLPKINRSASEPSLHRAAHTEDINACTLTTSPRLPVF
SMILES,viability at 10 µM (LOX IMVI),viability at 10 µM (SK-MEL-2),viability at 10 µM (UACC-257),IC50 (A-375),viability at 10 µM (SK-OV-3),viability at 10 µM (T47D),viability at 10 µM (SF-295),viability at 10 µM (SK-MEL-5),viability at 10 µM (HCT-29),IC50 (SK-MEL-28),viability at 10 µM (HCC 2998),viability at 10 µM (UO-31),viability at 10 µM (MCF7),viability at 10 µM (Malme-3M),viability at 10 µM (SF-539),viability at 10 µM (NCI-H322M),viability at 10 µM (CAKI-1),viability at 10 µM (HCT-15),viability at 10 µM (HCT-116),viability at 10 µM (RXF 393),other results
O=C(NCCNc1nccc(-c2c(-c3cccc(F)c3)nc3sccn23)n1)c1ccccc1,35.1%,51.4%,63.1%,5060 nM,75.1%,34.5%,71.4%,25.6%,25.8%,17000 nM,73.8%,22.8%,23.7%,23.7%,81.2%,64.8%,36.4%,34.6%,25.6%,60.6%,IC50 (L132): 200000 nM; IC50 [1]: 312 nM; IC50 [2]: 37 nM; IC50 [3]: 162 nM
Cc1ccc(S(=O)(=O)NCCCNc2nccc(-c3c(-c4cccc(F)c4)nc4sccn34)n2)cc1,38%,86.1%,121%,8380 nM,75.2%,34.5%,84.1%,57.3%,37.3%,9500 nM,98.2%,33.8%,69.4%,116%,95.3%,89.6%,46.9%,47.1%,49.6%,80.3%,IC50 [1]: 143 nM; IC50 [2]: 89 nM; IC50 [3]: 182 nM
O=S(=O)(NCCCNc1nccc(-c2c(-c3cccc(F)c3)nc3sccn23)n1)c1ccccc1,50.3%,65.1%,86.7%,6600 nM,71.5%,14.4%,79.9%,30.7%,32.9%,6850 nM,120%,39%,50.8%,82.1%,99.1%,89.3%,56.4%,37.8%,56.7%,84%,IC50 (L132): > 400000 nM
O=S(=O)(NCCCNc1nccc(-c2c(-c3cccc(F)c3)nc3sccn23)n1)c1ccc(Br)cc1,40.2%,61.4%,62.4%,7040 nM,80.1%,13.7%,64.2%,21.2%,23.8%,9400 nM,96.9%,31.6%,41.9%,69.4%,98%,81%,50.3%,26.4%,46.2%,81.8%,IC50 [1]: 18.6 nM; IC50 [2]: 9.3 nM; IC50 [3]: 22.9 nM
O=S(=O)(NCCCNc1nccc(-c2c(-c3cccc(F)c3)nc3sccn23)n1)c1ccc(Cl)cc1,60.3%,79.9%,103%,5900 nM,78.1%,25.6%,87.1%,40.9%,36.9%,8450 nM,123%,41.8%,61.7%,107%,99.3%,93.2%,63%,49.6%,64%,99.6%,IC50 [1]: 34 nM; IC50 [2]: 16.2 nM; IC50 [3]: 49.6 nM
O=S(=O)(NCCCNc1nccc(-c2c(-c3cccc(F)c3)nc3sccn23)n1)c1ccc(C(F)(F)F)cc1,86.7%,89.9%,110%,4090 nM,77.7%,56%,104%,91.1%,80.1%,11600 nM,125%,57.9%,82.1%,127%,110%,104%,67.9%,78.8%,86.2%,94.7%,IC50 (L132): 320000 nM; IC50 [1]: 40 nM; IC50 [2]: 26 nM; IC50 [3]: 63 nM
O=C(NCCNc1nccc(-c2c(-c3cccc(F)c3)nc3sccn23)n1)c1c(F)cccc1F,32.4%,62.4%,54.7%,2700 nM,64.1%,26.7%,66.8%,17.1%,20.4%,11400 nM,70.4%,20.8%,17.5%,31.6%,65.9%,57.5%,34.5%,31.1%,24.9%,57.1%,IC50 (L132): 198000 nM; IC50 [1]: 102 nM; IC50 [2]: 33.1 nM; IC50 [3]: 95.3 nM

# Source: ChEMBL document CHEMBL4665642, “Anticancer profile of newly synthesized BRAF inhibitors possess 5-(pyrimidin-4-yl)imidazo[2,1-b]thiazole scaffold” (Bioorg Med Chem, 2019)
